Measurements from patent publication US10160755B2 (Plexxikon Inc., priority 2015, dated 2018).

Target: T1, BA/F3-FLT3-ITD + D835Y cells (Homo sapiens, UniProt P36888, D835Y, cells depend on it, form not given)
T1 sequence (P36888 1-993 D835Y): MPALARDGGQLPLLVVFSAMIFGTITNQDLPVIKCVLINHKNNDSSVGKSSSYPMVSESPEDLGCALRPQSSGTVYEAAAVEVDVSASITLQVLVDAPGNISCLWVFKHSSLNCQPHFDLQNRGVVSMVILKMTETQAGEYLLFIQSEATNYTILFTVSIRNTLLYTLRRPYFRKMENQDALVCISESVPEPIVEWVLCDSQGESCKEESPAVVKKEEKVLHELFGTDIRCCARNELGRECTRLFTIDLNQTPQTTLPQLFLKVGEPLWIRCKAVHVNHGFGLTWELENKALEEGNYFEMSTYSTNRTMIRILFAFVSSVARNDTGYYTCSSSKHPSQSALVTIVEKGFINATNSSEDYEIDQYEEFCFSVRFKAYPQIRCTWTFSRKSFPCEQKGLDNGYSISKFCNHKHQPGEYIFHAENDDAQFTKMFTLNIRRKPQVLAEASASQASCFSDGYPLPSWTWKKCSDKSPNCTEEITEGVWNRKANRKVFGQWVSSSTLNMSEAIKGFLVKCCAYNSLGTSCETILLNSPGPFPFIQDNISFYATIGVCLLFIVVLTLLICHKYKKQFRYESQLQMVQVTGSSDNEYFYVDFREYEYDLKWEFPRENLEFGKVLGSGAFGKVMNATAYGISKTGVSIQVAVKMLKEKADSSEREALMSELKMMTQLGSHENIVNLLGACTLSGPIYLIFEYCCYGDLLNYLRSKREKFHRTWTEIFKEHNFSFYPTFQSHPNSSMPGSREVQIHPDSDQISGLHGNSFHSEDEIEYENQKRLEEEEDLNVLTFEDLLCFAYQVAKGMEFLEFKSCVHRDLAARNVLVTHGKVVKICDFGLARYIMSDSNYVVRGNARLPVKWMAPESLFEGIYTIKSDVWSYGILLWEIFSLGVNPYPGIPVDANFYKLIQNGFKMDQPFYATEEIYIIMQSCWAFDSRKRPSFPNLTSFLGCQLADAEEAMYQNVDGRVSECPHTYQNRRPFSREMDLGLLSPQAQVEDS
Assay: BA/F3-FLT3-ITD + D835Y cell proliferation assay (CellTiter-Glo)
Type: cell-based, murine
Settings: BaF3 cells, read-out: BaF3_FLT3_ITD/D835Y IC50
Text: The FLT3 inhibitors may also be assessed using leukemia cell lines that express endogenous FLT3-ITD or cells that are engineered to express wild-type or mutant FLT3. The cells expressing endogenous FLT3 are dependent upon FLT3 catalytic activity for growth. For the engineered cells, murine BA/F3 cells were transfected with full-length FLT3 (either wild-type, or containing the ITD, D835Y, or F691L mutations, as noted). The parental BA/F3 cells are dependent upon Interleukin-3 (IL-3) for survival, and introduction of the FLT3 constructs renders these cells dependent upon FLT3 kinase activity when cultured in the absence of IL-3. Engineered BA/F3 cell growth assays can be performed in either the absence or presence of IL-3, to assess the compound inhibition of FLT3 or to detect the presence of off-target activity, respectively. Inhibitors of FLT3 kinase activity reduce or eliminate the FLT3 oncogenic signaling, resulting in reduced cell proliferation. This inhibition is measured as a function of compound concentration to assess IC50 values.
Cells were seeded at 1×10^4 cells per well of a 96 well cell culture plate in 50 μl of cell culture medium. Compounds were dissolved in DMSO, typically at a concentration of 5 mM and were serially diluted 1:3 for a total of eight points and added to the cells to final concentrations of 10, 3.3, 1.1, 0.37, 0.12, 0.041, 0.014 and 0.0046 μM in 100 μl cell culture medium (final concentration 0.2% DMSO). […] The cells were incubated at 37° C., 5% CO2 for three days. CellTiter-Glo Buffer (Promega Cell Viability Assay catalog #G7573) and substrate were equilibrated to room temperature, and enzyme/substrate Recombinant Firefly Luciferase/Beetle Luciferin was reconstituted. […] The plates were read on a Tecan M1000 using Luminescence protocol modified to read 0.1 s per well. The luminescence reading assesses the ATP content, which correlates directly with cell number such that the reading as a function of compound concentration was used to determine the IC50 value.

In order of rising GI50:
1. COc1cnc2[nH]cc(-c3ccc4[nH]cnc4c3)c2c1 [Compound 2]  225 nM
2. COc1cnc2[nH]cc(-c3ccc4ncsc4c3)c2c1 [Compound 3]  237 nM
3. COc1cnc2[nH]cc(-c3ccc4[nH]ccc4c3)c2c1 [Compound 1, reference compound]  839 nM
